Assay results reported in patent US20230119539A1, “TRACELESS LINKERS AND PROTEIN-CONJUGATES THEREOF” (Regeneron Pharmaceuticals, Inc., priority 2019, published 2023).

Experiments:
[1] = Metabolic stability with human liver microsomes; format: in vitro ADME; settings: for Percent Remaining (%) / Area ratio of III formed from PIII-1: Mean
Protocol: The metabolic stability of payload PIII-1 incubated with human liver microsomes was evaluated and the results were shown in the Table 7e below.

[2] = pH stability of quenched linker-payloads in buffers (LCMS); format: physicochemical
Protocol: To a solution of compound (payloads or quenched-linker-payloads) in DMSO (0.2-1.0 mg/mL) was added corresponding PBS buffer (V(buffer)/V(DMSO)=5) to give test samples (pH 3, 4, 5, 6, 7.4, and 8.5, or other special pH). The test samples were incubated at RT for at least 3 days and monitored by LCMS (i.e., at 1 hr, 2 hr, 4 hr, 8 hr, and 1 day, 2 day, 3 day, 4 day, 5 day, 6 day, 7 day, 8 day, 9 day, and 21 day time points). Initial concentrations of the samples were 0.2 mg/mL (DMSO/buffer, v/v=1/5). […] The payloads and quenched linker-payloads were mostly stable at pH >5.0, 6.0, 7.4 and 8.5 after 3 days. In more acidic conditions, such as pH 1.0, the payloads or linker-payloads were easily cleaved to release D*-OH.

[3] = biological target: T1, human macrophage scavenger receptor 1 (MSR1) (human, UniProt P21757 1-451); experiment: cell-based or functional assay
T1 sequence (looked up): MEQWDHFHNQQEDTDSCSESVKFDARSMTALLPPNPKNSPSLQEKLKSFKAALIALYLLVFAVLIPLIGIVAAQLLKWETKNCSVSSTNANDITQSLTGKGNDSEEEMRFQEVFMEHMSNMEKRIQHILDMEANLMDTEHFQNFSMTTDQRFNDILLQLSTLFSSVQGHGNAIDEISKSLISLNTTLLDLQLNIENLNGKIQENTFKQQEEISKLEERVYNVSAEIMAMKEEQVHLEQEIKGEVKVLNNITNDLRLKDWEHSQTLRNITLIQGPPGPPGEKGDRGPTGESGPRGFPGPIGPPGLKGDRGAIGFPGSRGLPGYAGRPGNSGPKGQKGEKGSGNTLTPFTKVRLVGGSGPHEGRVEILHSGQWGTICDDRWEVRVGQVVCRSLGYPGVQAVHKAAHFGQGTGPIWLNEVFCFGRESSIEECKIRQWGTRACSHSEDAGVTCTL

[4] = biological target: T2, GR (Homo sapiens, UniProt P04150); experiment: GR luciferase reporter assay in HEK293/GRLuc cells; format: cell-based; settings: Table 8, ncADCs
T2 construct: host or cells: HEK293 (HEK293/GRLuc; HEK293/GRLuc/MSR1 additionally transduced with human MSR1)
T2 sequence (P04150 524-758 limits assumed): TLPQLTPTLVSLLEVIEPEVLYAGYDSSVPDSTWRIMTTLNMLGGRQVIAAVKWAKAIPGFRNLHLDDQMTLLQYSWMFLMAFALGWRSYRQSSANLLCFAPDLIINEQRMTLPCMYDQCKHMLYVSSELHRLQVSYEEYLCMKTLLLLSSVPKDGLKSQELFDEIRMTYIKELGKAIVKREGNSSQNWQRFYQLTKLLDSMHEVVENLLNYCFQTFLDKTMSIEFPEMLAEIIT
Protocol: Activity of anti-MSR1 ncADCs were tested using an MSR1 ADC steroid responsive luciferase reporter assay. To generate the assay cell line, HEK293 cells were co-transfected with the pBind-GR (Promega, Cat #E158A) and pGL4.35 [Luc2P/9xGAL4UAS/Hygro] (Promega, Cat #E137A) vectors. The pBind-GR vector expresses a fusion protein consisting of the GR ligand binding and the yeast Gal4DNA-binding domain, which binds to the Gal4 upstream activation sequence (UAS) in the luciferase expression vector, that can induce luciferase expression following GR agonist binding. The cells were selected for at least 2 weeks in G418+hygromycin and the resulting cell line is referred to as HEK293/GRLuc. HEK293/GRLuc cells were then transduced with a human MSR1 lentiviral expression vector and 48 hours later cells were sorted for MSR1 positive cells. The resulting cell line is referred to as HEK293/GRLuc/MSR1.
Three-fold serial dilutions of ncADCs in assay buffer were added to the cells for 48 hours. The last well in the plate served as blank control containing only the assay media and was plotted as a continuation of the 3-fold serial dilution. Luciferase activity was determined using the One-Glo™ reagent (Promega, Cat #E6130). Relative light units (RLUs) were measured on an Envision luminometer (PerkinElmer) and EC50 values were determined using a four-parameter logistic equation over a 10-point dose response curve (GraphPad Prism). The signal to noise (S/N) was determined by taking the ratio of the highest RLU on the dose response curve to the RLU in the untreated wells.
To test the activity of GR agonist payloads disclosed herein, a cell-based GR responsive luciferase reporter assay was developed as described above.
Three-fold serial dilutions of free payloads were prepared in 100% DMSO, transferred to fresh assay media, and added to the cells for 48 hours. […] The last well in the plate served as blank control containing only the assay media and 0.2% DMSO (untreated well) and was plotted as a continuation of the 3-fold serial dilution. Luciferase activity was determined using the One-Glo™ reagent (Promega, Cat #E6130). Relative light units (RLUs) were measured on an Envision luminometer (PerkinElmer) and EC50 values were determined using a four-parameter logistic equation over a 10-point dose response curve (GraphPad Prism). The signal to noise (S/N) was determined by taking the ratio of the highest RLU on the dose response curve to the RLU in the untreated wells.

O=C(c1ccc(F)cc1)C1CCN(CCn2c(=O)[nH]c3ccccc3c2=O)CC1 [ketanserin]
Percent Remaining (%) ([1]; 0 min): 100.00%
Percent Remaining (%) ([1]; 5 min): 81.45%
Percent Remaining (%) ([1]; 15 min): 67.51%
Percent Remaining (%) ([1]; 30 min): 41.90%
Percent Remaining (%) ([1]; 45 min): 36.47%
CLint scaled ([1]; human): 55.2 mL/min/kg
half-life ([1]; human): 31.5 min

CCCC1O[C@@H]2C[C@H]3[C@@H]4CCC5=CC(=O)C=C[C@]5(C)[C@H]4[C@@H](O)C[C@]3(C)[C@]2(C(=O)COCNC(=O)CNC(=O)OCc2ccc(O[C@@H]3O[C@H](CO)[C@@H](O)[C@H](O)[C@H]3O)c(C(=O)NCCNC(=O)COC3C#CCCCCC3)c2)O1 (stereo partly shown) [L18-PII-1, COT-EDA-(GLC)PAB-G-NHCH2-Bud]
LP: percentage of linker-payloads remaining ([2]; buffer, 1 day, 0.2 mg/mL, pH 4): 100%
LP: percentage of linker-payloads remaining ([2]; buffer, 1 day, 0.2 mg/mL, pH 5): 100%
LP: percentage of linker-payloads remaining ([2]; buffer, 1 day, 0.2 mg/mL, pH 6): 100%
LP: percentage of linker-payloads remaining ([2]; buffer, 1 day, 0.2 mg/mL, pH 7.4): 100%
LP: percentage of linker-payloads remaining ([2]; buffer, 2 day, 0.2 mg/mL, pH 4): 100%
LP: percentage of linker-payloads remaining ([2]; buffer, 2 day, 0.2 mg/mL, pH 5): 100%
LP: percentage of linker-payloads remaining ([2]; buffer, 2 day, 0.2 mg/mL, pH 6): 100%
LP: percentage of linker-payloads remaining ([2]; buffer, 2 day, 0.2 mg/mL, pH 7.4): 100%
LP: percentage of linker-payloads remaining ([2]; buffer, 7 day, 0.2 mg/mL, pH 4): 100%
LP: percentage of linker-payloads remaining ([2]; buffer, 7 day, 0.2 mg/mL, pH 5): 100%
LP: percentage of linker-payloads remaining ([2]; buffer, 7 day, 0.2 mg/mL, pH 6): 100%
LP: percentage of linker-payloads remaining ([2]; buffer, 7 day, 0.2 mg/mL, pH 7.4): 100%
P: percentage of budesonide released from the linker-payloads ([2]; pH 4.0, day 1): 0%
P: percentage of budesonide released from the linker-payloads ([2]; pH 4.0, day 2): 0%
P: percentage of budesonide released from the linker-payloads ([2]; pH 4.0, day 7): 0%
P: percentage of budesonide released from the linker-payloads ([2]; pH 5.0, day 1): 0%
P: percentage of budesonide released from the linker-payloads ([2]; pH 5.0, day 2): 0%
P: percentage of budesonide released from the linker-payloads ([2]; pH 5.0, day 7): 0%
P: percentage of budesonide released from the linker-payloads ([2]; pH 6.0, day 1): 0%
P: percentage of budesonide released from the linker-payloads ([2]; pH 6.0, day 2): 0%
P: percentage of budesonide released from the linker-payloads ([2]; pH 6.0, day 7): 0%
P: percentage of budesonide released from the linker-payloads ([2]; pH 7.4, day 1): 0%
P: percentage of budesonide released from the linker-payloads ([2]; pH 7.4, day 2): 0%
P: percentage of budesonide released from the linker-payloads ([2]; pH 7.4, day 7): 0%

CCCC1OC2CC3C4CCC5=CC(=O)C=CC5(C)C4C(O)CC3(C)C2(C(=O)COCN2CCCC(NC(=O)OCc3ccc(NC(=O)C(CCCNC(N)=O)NC(=O)C(NC(=O)CCOCCOCCOCCOCCNC(=O)CCC(=O)N4Cc5ccccc5-c5c(nnn5CCOCCOCCOCCOCCC(=O)NCCS(=O)(=O)O)-c5ccccc54)C(C)C)cc3)C2=O)O1 (mixture of isomers) [Q1L1-PII-12]
LP: percentage of linker-payloads remaining ([2]; pH 4.0, day 1): 100%
P: percentage of budesonide released from the linker-payloads ([2]; pH 4.0, day 1): 0%
LP: percentage of linker-payloads remaining ([2]; pH 4.0, day 2): 100%
P: percentage of budesonide released from the linker-payloads ([2]; pH 4.0, day 2): 0%
LP: percentage of linker-payloads remaining ([2]; pH 4.0, day 7): 100%
P: percentage of budesonide released from the linker-payloads ([2]; pH 4.0, day 7): 0%
LP: percentage of linker-payloads remaining ([2]; pH 5.0, day 1): 100%
P: percentage of budesonide released from the linker-payloads ([2]; pH 5.0, day 1): 0%
LP: percentage of linker-payloads remaining ([2]; pH 5.0, day 2): 100%
P: percentage of budesonide released from the linker-payloads ([2]; pH 5.0, day 2): 0%
LP: percentage of linker-payloads remaining ([2]; pH 5.0, day 7): 100%
P: percentage of budesonide released from the linker-payloads ([2]; pH 5.0, day 7): 0%
LP: percentage of linker-payloads remaining ([2]; pH 7.4, day 1): 100%
P: percentage of budesonide released from the linker-payloads ([2]; pH 7.4, day 1): 0%
LP: percentage of linker-payloads remaining ([2]; pH 7.4, day 2): 100%
P: percentage of budesonide released from the linker-payloads ([2]; pH 7.4, day 2): 0%
LP: percentage of linker-payloads remaining ([2]; pH 7.4, day 7): 100%
P: percentage of budesonide released from the linker-payloads ([2]; pH 7.4, day 7): 0%

CCCC1O[C@@H]2C[C@H]3[C@@H]4C[C@H](F)C5=CC(=O)C=C[C@]5(C)[C@@]4(F)[C@@H](O)C[C@]3(C)[C@]2(C(=O)CO)O1 (stereo partly shown) [III from P11I-1]
Area ratio of III formed from PIII-1 ([1]; 0 min): BQL
Area ratio of III formed from PIII-1 ([1]; 5 min): 0.001
Area ratio of III formed from PIII-1 ([1]; 15 min): 0.002
Area ratio of III formed from PIII-1 ([1]; 30 min): 0.001
Area ratio of III formed from PIII-1 ([1]; 45 min): 0.001

B1: H1H21234N-N297Q-L4-PIII-1 (antibody, V domains shown)
VH: QVQLQESGPGLVKPSETLSLTCTVTGGSISRNYWSWIRQPPGKGLEWIGYIYYSGSIDYNPSLKSRVTISVDTSKNQFSLKLSSMTAADTAVYYCARDRWNWKYGMDVWGQGTTVIVSS
VL: EIVLTQSPGTLSLSPGERATLSCRASQTVRNNYLAWYHQKPGQAPRLLIYGASSRATGIPDRFSGSGSGTDFTLTISRLEPEDFTVYYCHQYGNSPWTFGQGTKMEIKR
modifications: heavy-chain constant region (not part of this entry): N297Q (EU); linker-payload L4-PIII-1 (DIBAC-suc-GGF-PIII-1) clicked onto azido-PEG3-amine on glutamines; DAR 4
EC50, GR luciferase reporter activity in HEK293/GRLuc/MSR1 cells [3]: 0.117 nM
S/N (highest RLU / RLU in untreated wells), HEK293/GRLuc/MSR1 cells [3]: 148
EC50 ([4]; 48 hours): 51.4 nM
S/N ([4]; highest RLU / RLU of untreated wells): 25.5
